Source: ChEMBL document CHEMBL1129317, “Novel selective and partial agonists of 5-HT3 receptors. Part 1. Synthesis and biological evaluation of piperazinopyrrolothienopyrazines” (J Med Chem, 1996)

What was measured:
[1] = biological target: T1, Serotonin 3 (5-HT3) receptor (Rattus norvegicus, UniProt P35563+Q9JJ16); assay: Binding affinity towards 5-hydroxytryptamine 3 receptor; type: protein-complex assay
T1 sequence (P35563 whole entry): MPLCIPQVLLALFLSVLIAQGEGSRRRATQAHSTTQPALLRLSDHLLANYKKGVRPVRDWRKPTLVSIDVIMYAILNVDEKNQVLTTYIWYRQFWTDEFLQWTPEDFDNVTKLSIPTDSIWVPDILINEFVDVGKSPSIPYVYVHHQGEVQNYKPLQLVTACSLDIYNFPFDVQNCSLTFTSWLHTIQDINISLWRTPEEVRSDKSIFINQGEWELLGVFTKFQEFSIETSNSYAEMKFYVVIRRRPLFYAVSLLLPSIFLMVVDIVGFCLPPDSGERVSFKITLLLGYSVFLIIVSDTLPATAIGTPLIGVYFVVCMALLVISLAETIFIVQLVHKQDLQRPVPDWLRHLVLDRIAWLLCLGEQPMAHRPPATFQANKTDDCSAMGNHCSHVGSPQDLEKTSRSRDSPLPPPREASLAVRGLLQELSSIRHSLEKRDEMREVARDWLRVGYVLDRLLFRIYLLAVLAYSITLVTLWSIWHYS
T1 sequence (Q9JJ16 whole entry): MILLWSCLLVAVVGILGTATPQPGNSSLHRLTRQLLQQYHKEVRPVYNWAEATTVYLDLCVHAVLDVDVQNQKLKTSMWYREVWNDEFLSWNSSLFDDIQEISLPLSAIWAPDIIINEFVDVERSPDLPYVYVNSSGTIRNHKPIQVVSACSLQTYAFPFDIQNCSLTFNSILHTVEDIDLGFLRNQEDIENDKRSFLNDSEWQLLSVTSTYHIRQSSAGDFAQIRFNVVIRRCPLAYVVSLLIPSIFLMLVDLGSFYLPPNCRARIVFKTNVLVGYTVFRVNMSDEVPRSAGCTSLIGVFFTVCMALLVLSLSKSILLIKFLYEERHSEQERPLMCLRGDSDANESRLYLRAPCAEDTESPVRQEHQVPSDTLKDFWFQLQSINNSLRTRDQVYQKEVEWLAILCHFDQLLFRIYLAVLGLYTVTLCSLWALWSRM

[2] = biological target: T2, 5-hydroxytryptamine receptor 2C (Homo sapiens, UniProt P28335); assay: Binding affinity towards 5-hydroxytryptamine 2C receptor
T2 sequence (P28335 whole entry): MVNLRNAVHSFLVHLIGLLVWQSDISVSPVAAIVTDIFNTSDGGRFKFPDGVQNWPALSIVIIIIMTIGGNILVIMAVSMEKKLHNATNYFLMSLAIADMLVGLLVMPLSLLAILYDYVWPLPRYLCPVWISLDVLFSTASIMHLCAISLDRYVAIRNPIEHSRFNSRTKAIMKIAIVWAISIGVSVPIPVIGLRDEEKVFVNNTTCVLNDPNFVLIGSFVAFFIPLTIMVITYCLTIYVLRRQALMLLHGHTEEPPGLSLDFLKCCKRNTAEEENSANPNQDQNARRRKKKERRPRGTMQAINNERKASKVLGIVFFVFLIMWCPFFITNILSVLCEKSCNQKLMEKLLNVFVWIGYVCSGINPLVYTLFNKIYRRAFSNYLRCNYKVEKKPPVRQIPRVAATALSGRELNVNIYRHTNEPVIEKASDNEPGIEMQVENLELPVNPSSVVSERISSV

[3] = biological target: T3, 5-hydroxytryptamine receptor 1A (Homo sapiens, UniProt P08908); assay: Binding affinity for 5-hydroxytryptamine 1A receptor
T3 sequence (P08908 whole entry): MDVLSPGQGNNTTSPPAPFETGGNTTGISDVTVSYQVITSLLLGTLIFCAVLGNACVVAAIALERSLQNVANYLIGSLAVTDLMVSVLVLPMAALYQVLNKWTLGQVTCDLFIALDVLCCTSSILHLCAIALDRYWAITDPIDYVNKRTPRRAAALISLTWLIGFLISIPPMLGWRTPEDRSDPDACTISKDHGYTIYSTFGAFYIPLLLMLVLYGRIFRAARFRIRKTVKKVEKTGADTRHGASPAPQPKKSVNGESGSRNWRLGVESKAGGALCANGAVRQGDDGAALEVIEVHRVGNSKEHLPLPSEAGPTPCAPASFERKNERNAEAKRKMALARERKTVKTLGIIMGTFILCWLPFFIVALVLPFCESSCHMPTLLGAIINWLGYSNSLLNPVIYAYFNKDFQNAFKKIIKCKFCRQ

[4] = biological target: 5-hydroxytryptamine receptor 2A (Bos taurus, UniProt Q75Z89); assay: Binding affinity towards 5-hydroxytryptamine 2A receptor
NG108-15 [5] = assay: (§1) In vitro effective concentration against [14C]guanidinium uptake into NG 108-15 cells; type: functional; settings: Murinae, read-out: ED50 (the source's name)
[6] = biological target: T4, Serotonin 3 (5-HT3) receptor (Rattus norvegicus) (UniProt P35563+Q9JJ16); assay: Agonistic activity of compound towards 5-hydroxytryptamine 3 receptor in Von Bezold-Jarisch Reflex in rats at 60 (ug/kg), evaluated as change in heart rate; type: functional
[7] = biological target: T4, Serotonin 3 (5-HT3) receptor (Rattus norvegicus); assay: Antagonistic activity of compound towards 5-hydroxytryptamine 3 receptor in Von Bezold-Jarisch reflex in rats at 60(ug/kg), evaluated as percent inhibition of bradycardia; type: functional
[8] = biological target: T4, Serotonin 3 (5-HT3) receptor (Rattus norvegicus); assay: Agonistic activity of compound towards 5-hydroxytryptamine 3 receptorr in Von Bezold-Jarisch Reflex in rats at 100 (ug/kg), evaluated as change in heart rate; type: functional
[9] = biological target: 5-hydroxytryptamine receptor 1D (Sus scrofa, UniProt P79400); assay: Binding affinity for 5-hydroxytryptamine 1D receptor
[10] = biological target: 5-hydroxytryptamine receptor 1B (Rattus norvegicus, UniProt P28564); assay: Binding affinity for 5-hydroxytryptamine 1B receptor
[11] = biological target: T4, Serotonin 3 (5-HT3) receptor (Rattus norvegicus); assay: Agonistic activity of compound towards 5-hydroxytryptamine 3 receptor in Von Bezold-Jarisch Reflex in rats at 100 (ug/kg), evaluated as change in heart rate; type: functional
[12] = biological target: T4, Serotonin 3 (5-HT3) receptor (Rattus norvegicus); assay: Antagonistic activity of compound towards 5-hydroxytryptamine 3 receptor in Von Bezold-Jarisch Reflex in rats at 60 (ug/kg), evaluated as percent inhibition of bradycardia; type: functional
NG108-15 [13] = assay: as §1; type: functional, cell-based; settings: Murinae
[14] = biological target: T4, Serotonin 3 (5-HT3) receptor (Rattus norvegicus); assay: 5-Hydroxy tryptamine 3 receptor showing agonist activity (in vivo) in Von Bezold-Jarisch Reflex in rats at 120 (ug/kg), evaluated as change in heart rate; type: functional, organism-based
[15] = biological target: T4, Serotonin 3 (5-HT3) receptor (Rattus norvegicus); assay: Antagonistic activity of compound towards 5-hydroxytryptamine 3 receptor in Von Bezold-Jarisch Reflex in rats at 100(ug/kg), evaluated as percent inhibition of bradycardia; type: functional

Chain of 5-hydroxytryptamine receptor 1D (P79400 whole entry): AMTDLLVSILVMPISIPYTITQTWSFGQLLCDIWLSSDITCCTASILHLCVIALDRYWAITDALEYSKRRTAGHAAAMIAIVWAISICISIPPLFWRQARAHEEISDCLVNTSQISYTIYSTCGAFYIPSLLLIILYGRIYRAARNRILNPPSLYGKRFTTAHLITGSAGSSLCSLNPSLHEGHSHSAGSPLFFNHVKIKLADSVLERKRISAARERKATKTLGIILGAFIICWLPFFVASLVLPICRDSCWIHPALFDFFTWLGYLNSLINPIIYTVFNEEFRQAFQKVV
Chain of 5-hydroxytryptamine receptor 2A (Q75Z89 whole entry): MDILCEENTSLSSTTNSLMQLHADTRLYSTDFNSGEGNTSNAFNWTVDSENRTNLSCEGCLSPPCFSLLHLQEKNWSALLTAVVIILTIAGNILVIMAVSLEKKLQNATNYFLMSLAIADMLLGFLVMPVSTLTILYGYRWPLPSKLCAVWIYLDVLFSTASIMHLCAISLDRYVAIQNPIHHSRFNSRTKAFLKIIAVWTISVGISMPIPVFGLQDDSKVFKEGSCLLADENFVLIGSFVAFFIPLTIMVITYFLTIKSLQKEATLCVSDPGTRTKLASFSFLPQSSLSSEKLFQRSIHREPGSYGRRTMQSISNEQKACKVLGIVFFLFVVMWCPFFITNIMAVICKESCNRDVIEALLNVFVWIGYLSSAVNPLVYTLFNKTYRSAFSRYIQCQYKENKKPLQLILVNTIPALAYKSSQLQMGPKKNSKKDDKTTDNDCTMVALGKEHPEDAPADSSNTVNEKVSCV
Chain of 5-hydroxytryptamine receptor 1B (P28564 whole entry): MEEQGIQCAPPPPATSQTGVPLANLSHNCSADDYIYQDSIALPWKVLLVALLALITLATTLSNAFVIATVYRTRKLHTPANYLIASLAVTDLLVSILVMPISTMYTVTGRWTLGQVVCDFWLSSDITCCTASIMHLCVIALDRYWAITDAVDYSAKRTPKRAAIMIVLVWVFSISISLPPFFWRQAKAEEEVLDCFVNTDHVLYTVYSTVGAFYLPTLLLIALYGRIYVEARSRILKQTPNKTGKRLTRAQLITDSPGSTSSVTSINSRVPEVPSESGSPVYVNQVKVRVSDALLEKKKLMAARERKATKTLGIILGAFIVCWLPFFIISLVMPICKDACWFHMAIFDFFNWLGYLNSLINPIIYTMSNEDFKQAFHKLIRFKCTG

SMILES | IC50 [1] [µM] | IC50 [2] [µM] | IC50 [3] [µM] | IC50 [4] [µM] | EC50 (NG108-15 [5]) [µM] | Change [6] [%] | Change [7] [%] | Change [8] [%] | IC50 [9] [µM] | IC50 [10] [µM] | Change [11] [%] | Change [12] [%] | EC50 (NG108-15 [13]) [µM] | Change [14] [%] | Change [15] [%]
C=CCN1CCN(c2nc3sccc3n3cccc23)CC1 | 0.000912 | 0.759 | 0.0676 | 2.34 | 0.004 | 30 | 67 | 72 | 0.468 | 0.417 | – | – | – | – | –
Fc1ccc(CN2CCN(c3nc4sccc4n4cccc34)CC2)cc1 | 0.00117 | – | 14.5 | 38 | – | 0 | – | – | > 100 | 1580 | 25 | 34 | 0.005 | – | –
c1cc2c(N3CCNCC3)nc3ccsc3n2c1 | 0.012 | 0.0347 | 0.0589 | 2.63 | – | 35 | 68 | – | 0.603 | 0.0138 | – | – | 0.08 | 0 | –
c1ccc(CN2CCN(c3nc4sccc4n4cccc34)CC2)cc1 | 0.00457 | 3.72 | 5.89 | 19.5 | – | – | – | – | 93.3 | 91.2 | 48 | – | 0.03 | – | 67
c1cc2c(N3CCN(Cc4ccc5c(c4)OCO5)CC3)nc3ccsc3n2c1 | 0.00257 | 0.457 | 0.263 | 11 | – | – | – | – | 36.3 | 3.09 | – | – | – | – | –
Clc1ccc(C(c2ccccc2)N2CCN(c3nc4ccsc4n4cccc34)CC2)cc1 (stereo not given) | 1.38 | 282 | 204 | > 100 | – | – | – | – | > 100 | > 100 | – | – | – | – | –
c1ccc(CN2CCN(c3nc4sc(-c5ccccc5)cc4n4cccc34)CC2)cc1 | 39.8 | 1000 | 389 | > 100 | – | – | – | – | 537 | > 100 | – | – | – | – | –
c1cc2c(N3CCOCC3)nc3ccsc3n2c1 | 20.9 | 41.7 | 32.4 | 39.8 | – | – | – | – | 93.3 | > 100 | – | – | – | – | –
FC(F)(F)c1cccc(N2CCN(c3nc4cc(-c5ccccc5)sc4n4cccc34)CC2)c1 | > 100 | 214 | > 100 | > 100 | – | – | – | – | > 100 | 1380 | – | – | – | – | –
Clc1ccc(CN2CCN(c3nc4sccc4n4cccc34)CC2)c(Cl)c1 | 4.17 | 19.1 | 31.6 | 479 | – | – | – | – | 25.1 | 63.1 | – | – | – | – | –
Clc1ccc(CN2CCN(c3nc4sccc4n4cccc34)CC2)cc1Cl | 1.17 | 8.71 | 10.2 | 191 | – | – | – | – | 257 | 33.9 | – | – | – | – | –
FC(F)(F)c1cccc(N2CCN(c3nc4scc(-c5ccccc5)c4n4cccc34)CC2)c1 | 2.95 | 1.07 | 17.8 | 87.1 | – | – | – | – | 35.5 | 19.1 | – | – | – | – | –
CCOC(=O)CN1CCN(c2nc3ccsc3n3cccc23)CC1 | 4.07 | 61.7 | 0.257 | 70.8 | – | – | – | – | 100 | 0.676 | – | – | – | – | –
c1ccc(C2CCN(c3nc4ccsc4n4cccc34)CC2)cc1 | > 100 | > 100 | > 100 | > 100 | – | – | – | – | > 100 | > 100 | – | – | – | – | –
C=CCN1CCN(c2nc3ccsc3n3cccc23)CC1 | 0.00263 | 0.17 | 0.12 | 0.851 | – | – | – | – | 0.38 | 0.575 | – | – | – | – | –
O=C(c1ccc(F)cc1)N1CCN(c2nc3ccsc3n3cccc23)CC1 | 1050 | > 100 | 102 | 151 | – | – | – | – | 129 | 112 | – | – | – | – | –
Fc1ccc(CN2CCN(c3nc4ccsc4n4cccc34)CC2)cc1 | 0.0214 | 7.41 | 0.347 | 22.4 | – | – | – | – | 138 | 14.5 | – | – | – | – | –
Fc1ccc(N2CCN(c3nc4ccsc4n4cccc34)CC2)cc1 | 97.7 | 72.4 | 43.7 | 447 | – | – | – | – | 275 | 70.8 | – | – | – | – | –
CN1CCN(c2nc3cc(-c4ccccc4)sc3n3cccc23)CC1 | 19.1 | 11.7 | 4.9 | 7.41 | – | – | – | – | 87.1 | 14.8 | – | – | – | – | –
Fc1ccc(CN2CCN(Cc3nc4ccsc4n4cccc34)CC2)cc1 | 18.2 | 14.1 | 7.76 | 13.8 | – | – | – | – | 38 | 19.5 | – | – | – | – | –
c1cc2c(N3CCN(CC4CC4)CC3)nc3ccsc3n2c1 | 0.0603 | 0.355 | 0.0617 | 0.933 | – | – | – | – | 2.57 | 10.2 | – | – | – | – | –
Cc1sc2c(nc(N3CCN(Cc4ccccc4)CC3)c3cccn32)c1C | 3.63 | 155 | 126 | 174 | – | – | – | – | 525 | > 100 | – | – | – | – | –
FC(F)(F)c1cccc(N2CCN(c3nc4sccc4n4cccc34)CC2)c1 | 74.1 | 5.89 | 12.6 | 832 | – | – | – | – | 57.5 | 7.41 | – | – | – | – | –
CN1CCN(c2nc3ccsc3n3cccc23)CC1 | 0.813 | 0.24 | 0.117 | 1.29 | – | – | – | – | 0.398 | 11.2 | – | – | – | – | –
c1cc2c(N3CCCCC3)nc3ccsc3n2c1 | 72.4 | 57.5 | 64.6 | > 100 | – | – | – | – | > 100 | > 100 | – | – | – | – | –
Clc1ccc(N2CCN(c3nc4ccsc4n4cccc34)CC2)cc1 | 245 | 102 | > 100 | 372 | – | – | – | – | > 100 | 302 | – | – | – | – | –
